Columns and labels:
[1] = tested on: SMC-mediated collagen fibrillogenesis; test: Treatment effects on SMC-mediated collagen fibrillogenesis (FITC-labeled collagen assembly assay, fluorescence plate reader); format: cell-based, mouse; design: % fibrillogenesis of no treatment control / effect of treatment on SMC-assisted collagen fibrillogenesis (FIG. 5A-B) / effect of treatment on collagen fibrils (FIG. 5C): unit of the concentration uncertain; conditions: for % fibrillogenesis of no treatment control: 1 (unit uncertain) of compound (smallest concentration used), green fluorescence normalized by cell density
Description: (§1) In one embodiment, the assay consists of adding a solution of FITC-labeled protein to cultured cells in the presence or absence of various treatments, then returning the cells to the incubator (37° C., 5% CO2) for various periods of time. Supramolecular protein assembly can be followed in time as a gain of fluorescence using a fluorescence plate reader, or by confocal microscopy with live cells or after fixation of cells. Specifically, for the development of this assay, SMC were used that had been plated into black clear-bottomed 96-well tissue culture-treated plates (Fisher) at 10,000 cells per well in 100 µL of DMEM+10% FBS 2 days prior to performing the assay.
After 24 h, the culture medium was changed to DMEM without FBS to promote cell quiescence, then SMC were returned to the incubator (37° C., 5% CO2) for an additional 24 h. Before the start of the assay, the culture medium was aspirated from each well and replaced with 100 µL of FITC-labeled collagen, BSA, or denatured collagen in DMEM without FBS, final concentration between […]. The cells were returned to the incubator for time periods up to 24 h.
At the end of the assay, the culture medium was aspirated and replaced with 10% buffered formalin (Fisher) for 10 min. For normalization of results, cell nuclei were counterstained using HOECHST [500 ng/mL in phosphate-buffered saline (PBS), pH 7.4] for 5 min. The wells subsequently were washed two times with PBS, then 100 µL of PBS were added to each well and the intensity of the fluorescence was measured with a fluorescence plate reader (CytoFluor® series 4000, PerSeptive Biosystems) using the following settings for protein assembly: ex=480 nm, em=530 nm, gain 85, and ex=360 nm, em=460 nm, gain 80 for cell nuclei.
In each quantitative assay, twelve wells of a 96-well plate were used for each condition. Average background readings were obtained from wells without cells or without labeled collagen monomer solution (six each) to ensure that the assay measured only the cell-assisted protein assembly.
To assess the ability of our assay to detect the effects of treatments that interfere with cell cytoskeleton, and therefore may affect fibrillogenesis, SMC were pretreated with […] of cytochalasin D, a chemical that disrupts organization of the actin cytoskeleton, for 30 min prior to the assay. The same concentrations were maintained throughout the assay. Retinoic acid, which has the opposite effect, stiffening SMC cytoskeleton, was added at […] of final concentrations.
To test whether the assay can detect formation of fibrils by incorporating de novo synthesized endogenous collagen, effect of treatments that should directly affect this process were investigated. Ascorbic acid, which enhances the triple helix organization of de novo synthesized collagen, was added at 5, 10, and 50 µM of final concentrations to the SMC culture medium for 24 h prior to the assay and maintained throughout the assay. Homocysteine thiolactone, which is a lysyl oxidase inhibitor and thus impairs the higher organization of collagen, was used at 5, 10, 50, 100, and 500 µM of final concentration in the SMC culture media. To assess the potential effects of these treatments, fibrillogenesis was calculated as the percentage of fibrillogenesis mediated by nontreated SMC.

SMC = test: SDS-PAGE / phosphoimager detection of FITC-labeled protein recovered after incubation with SMC; format: cell-based; conditions: 50 or 100 mg/mL, 24 h with SMC in culture
Description: SMC were plated in 6-well tissue culture plates at a density of 500,000 cells per well. After 24 h, the media was aspirated and replaced with 1 mL of serum-free media containing 50 or 100 µg/mL of FITC-labeled BSA, collagen, or denatured collagen and placed back in a 37° C., 5% CO2 incubator for 24 h for assembly. The SMC cultured with labeled proteins then were rinsed twice with PBS, after which cell extracts were taken using […] of acidified (0.02M of acetic acid) lysis buffer. Samples […] from each condition before and after culturing with SMC were run on an 1.5-mm SDS-PAGE gel (Biorad apparatus) for 2 h at 150 V. FITC-labeled protein bands were imaged using a phosphoimager (Storm 860, Molecular Dynamics) with the ability to detect green fluorescence.

mouse aortic SMC = test: Protein assembly assay: FITC-labeled protein added to mouse aortic SMC (plate reader / fluorescence microscopy); format: cell-based; conditions: labeled protein incubated with SMC for 24 h
Description: as §1, with “assay. […]” for “assay.”
At the end of the assay, the culture medium was aspirated and replaced with 10% buffered formalin (Fisher) for 10 min. […] The wells subsequently were washed two times with PBS, then 100 µL of PBS were added to each well and the intensity of the fluorescence was measured with a fluorescence plate reader (CytoFluor® series 4000, PerSeptive Biosystems) using the following settings for protein assembly: ex=480 nm, em=530 nm, gain 85, and ex=360 nm, em=460 nm, gain 80 for cell nuclei.
In each quantitative assay, twelve wells of a 96-well plate were used for each condition. […]

For O=C1O[C@H]([C@@H](O)CO)C(O)=C1O [ascorbic acid, Ascorbic acid], which “effect of treatment on collagen fibrils (FIG. 5C)” value ([1]; 5, 10, 50 (unit uncertain), added 24 h prior to the assay and maintained throughout) is on record?
Its value is “moderate, yet statistically significant, enhancement of collagen fibrils”.

Which “effect on SMC-mediated collagen assembly” value ([1]; up to concentrations twice the IC50 value (5-500 M), data not shown) does the source give for NC1CCSC1=O (stereo not shown) [homocysteine thiolactone, Homocysteine thiolactone] here?
The value was “no effects”.

“labeled BSA: FITC-labeled bovine serum albumin” was tested. Which “association of labeled protein with SMC monolayer (SDS-PAGE)” value (SMC) did it give?
The value was “neither BSA nor denatured collagen was associated with cells”.

And the “supramolecular assembly seen by fluorescence microscopy” value (mouse aortic SMC)?
Its value is “No assembly was detected”.

Which “% fibrillogenesis of no treatment control” value [1] does the source give for CC1=C(/C=C/C(C)=C/C=C/C(C)=C/C(=O)O)C(C)(C)CCC1 [retinoic acid, Retinoic acid] here?
The value was 59.5±9.4%.

What does the source list for C=C1[C@@H](C)[C@H]2[C@H](Cc3ccccc3)NC(=O)[C@]23[C@H](OC(C)=O)/C=C/[C@@](C)(O)C(=O)[C@@H](C)C/C=C/[C@H]3[C@@H]1O [cytochalasin D, Cytochalasin D]?
% fibrillogenesis of no treatment control [1]: 12.1±1.0%; effect of treatment on SMC-assisted collagen fibrillogenesis (FIG. 5A-B) ([1]; increasing concentrations (1, 5, 10 (unit uncertain))): impairs the ability of SMC to facilitate fibrillogenesis
